Paper PMC4965013, “Open Source Drug Discovery with the Malaria Box Compound Collection for Neglected Diseases and Beyond” (PLoS Pathogens, 2016)
One block for each compound: values may come before it.

Experiments:
P. falciparum = experiment: EC50 listed in S2 Table Metabolomics (used to set the concentration tested); assay type: cell-based; conditions: Plasmodium falciparum; EC50 used for Factor_XEC50 in metabolomics; read-out: EC50_nM
[1] = system: P. falciparum 3D7 trophozoites; experiment: Metabolomic fingerprint profiling LC-MS; assay type: cell-based, Plasmodium falciparum; parameters: UDP-D-glucose / ADP-D-glucose: unit not given here; conditions: for Acetyllysine / N-acetyl-L-ornithine / N-carbamoyl-L-aspartate / NADPH / dAMP / dCMP / dTDP / dTMP / dTTP / dihydroorotate / orotate / DLH / DLS/SDL/SID / PD / PEE / PVNF / 3-phosphoglycerate / ADP-D-glucose / ATP / CDP / D-sedoheptulose-1/7-phosphate / FAD / GMP / NAD+ / NADP+ / Octoluse Bisphosphate / Pyroglutamic acid / UDP-D-glucose / UDP-D-glucuronate / UDP-N-acetyl-glucosamine / UDP / UMP / UTP / a-ketoglutarate / citrate/isocitrate / cytidine / dATP / dGMP/AMP / fumarate / glucose-1/6-phosphate / glycerate / guanine / guanosine / hypoxanthine / indole / inosine / nicotinate / ornithine / phosphoenolpyruvate / pyruvate / ribose-phosphate / sarcosine/alanine / sn-glycerol-3-phosphate / succinate/methylmalonic acid / uridine / xanthosine: S2 Table Metabolomics; for Acetyllysine: metabolite Acetyllysine; for N-acetyl-L-ornithine: metabolite N-acetyl-L-ornithine; for N-carbamoyl-L-aspartate: metabolite N-carbamoyl-L-aspartate; for NADPH: metabolite NADPH; for dAMP: metabolite dAMP; for dCMP: metabolite dCMP; for dTDP: metabolite dTDP; for dTMP: metabolite dTMP; for dTTP: metabolite dTTP; for dihydroorotate: metabolite dihydroorotate; for orotate: metabolite orotate; for DLH: peptide DLH; for DLS/SDL/SID: peptide DLS/SDL/SID; for PD: peptide PD; for PEE: peptide PEE; for PVNF: peptide PVNF; for 3-phosphoglycerate: metabolite 3-phosphoglycerate; for ADP-D-glucose: metabolite ADP-D-glucose; for ATP: metabolite ATP; for CDP: metabolite CDP; for CDP / D-sedoheptulose-1/7-phosphate / GMP / Octoluse Bisphosphate / UDP / UMP / UTP / citrate/isocitrate / dGMP/AMP / fumarate / glucose-1/6-phosphate / glycerate / guanine / guanosine / inosine / pyruvate / sarcosine/alanine / succinate/methylmalonic acid / uridine / xanthosine: change in metabolite level after compound treatment; for D-sedoheptulose-1/7-phosphate: metabolite D-sedoheptulose-1/7-phosphate; for FAD: metabolite FAD; for GMP: metabolite GMP; for NAD+: metabolite NAD+; for NADP+: metabolite NADP+; for Octoluse Bisphosphate: metabolite Octoluse Bisphosphate; for Pyroglutamic acid: metabolite Pyroglutamic acid; for UDP-D-glucose: metabolite UDP-D-glucose; for UDP-D-glucuronate: metabolite UDP-D-glucuronate; for UDP-N-acetyl-glucosamine: metabolite UDP-N-acetyl-glucosamine; for UDP: metabolite UDP; for UMP: metabolite UMP; for UTP: metabolite UTP; for a-ketoglutarate: metabolite a-ketoglutarate; for citrate/isocitrate: metabolite citrate/isocitrate; for cytidine: metabolite cytidine; for dATP: metabolite dATP; for dGMP/AMP: metabolite dGMP/AMP; for fumarate: metabolite fumarate; for glucose-1/6-phosphate: metabolite glucose-1/6-phosphate; for glycerate: metabolite glycerate; for guanine: metabolite guanine; for guanosine: metabolite guanosine; for hypoxanthine: metabolite hypoxanthine; for indole: metabolite indole; for inosine: metabolite inosine; for 2_3-Diphosphoglyceric acid / 4-phosphopantothenate / 6-phospho-D-gluconate / FMN / IMP / Pyrophosphate / Sedoheptoluse bisphosphate / cyclic-AMP / glutathione disulfide / lactate / myo-inositol: metabolite level change after treatment; for nicotinate: metabolite nicotinate; for ornithine: metabolite ornithine; for phosphoenolpyruvate: metabolite phosphoenolpyruvate; for pyruvate: metabolite pyruvate; for ribose-phosphate: metabolite ribose-phosphate; for sarcosine/alanine: metabolite sarcosine/alanine; for sn-glycerol-3-phosphate: metabolite sn-glycerol-3-phosphate; for succinate/methylmalonic acid: metabolite succinate/methylmalonic acid; for uridine: metabolite uridine; for xanthosine: metabolite xanthosine

EC50 (P. falciparum): 0.351 µM
Structure (SMILES): CCOC(=O)c1cnc2ccc(CC)cc2c1O [MMV007116]
Acetyllysine [1]: -0.1012
N-acetyl-L-ornithine [1]: 0.0981
N-carbamoyl-L-aspartate [1]: 2.971
NADPH [1]: -0.5029
dAMP [1]: -0.4219
dCMP [1]: 0.4317
dTDP [1]: -1.171
dTMP [1]: -0.8513
dTTP [1]: -0.7029
dihydroorotate [1]: 3.788
orotate [1]: -1.509
DLH [1]: 0.2963
DLS/SDL/SID [1]: 0.1623
PD [1]: 0.3262
PEE [1]: 0.1615
PVNF [1]: 0.2601
3-phosphoglycerate [1]: -0.1794
ADP-D-glucose [1]: 0.1742
ATP [1]: 0.4661
CDP [1]: -0.7049
D-sedoheptulose-1/7-phosphate [1]: -0.06275
FAD [1]: 0.2601
GMP [1]: -0.15
NAD+ [1]: 0.1229
NADP+ [1]: 0.2138
Octoluse Bisphosphate [1]: 0.1604
Pyroglutamic acid [1]: 0.5147
UDP-D-glucose [1]: 0.04103
UDP-D-glucuronate [1]: 0.1753
UDP-N-acetyl-glucosamine [1]: -0.1032
UDP [1]: -1.173
UMP [1]: -0.7684
UTP [1]: -0.9344
a-ketoglutarate [1]: -0.7057
citrate/isocitrate [1]: -0.7167
cytidine [1]: 0.3209
dATP [1]: 0.325
dGMP/AMP [1]: -0.3675
fumarate [1]: 0.4728
glucose-1/6-phosphate [1]: 0.07021
glycerate [1]: -0.09904
guanine [1]: -0.05466
guanosine [1]: -0.14
hypoxanthine [1]: -0.2065
indole [1]: -0.3037
inosine [1]: -0.2408
2_3-Diphosphoglyceric acid [1]: 0.3408
4-phosphopantothenate [1]: -0.2638
6-phospho-D-gluconate [1]: 0.07683
FMN [1]: -0.08712
IMP [1]: -0.2111
Pyrophosphate [1]: 0.42
Sedoheptoluse bisphosphate [1]: 0.05124
cyclic-AMP [1]: 0.01532
glutathione disulfide [1]: 0.02122
lactate [1]: -0.5604
myo-inositol [1]: -0.5893
nicotinate [1]: -0.6598
ornithine [1]: -0.07172
phosphoenolpyruvate [1]: -0.09558
pyruvate [1]: -0.6031
ribose-phosphate [1]: 0.2426
sarcosine/alanine [1]: -0.04206
sn-glycerol-3-phosphate [1]: 0.1096
succinate/methylmalonic acid [1]: 0.07837
uridine [1]: -1.178
xanthosine [1]: 0.04101

EC50 (P. falciparum): 0.428 µM
Structure (SMILES): Cc1ccc(Nc2nc(NCCO)c3ccccc3n2)cc1C [MMV001038]
Acetyllysine [1]: -1.736
N-acetyl-L-ornithine [1]: -0.8338
N-carbamoyl-L-aspartate [1]: 2.2667
NADPH [1]: 1.133
dAMP [1]: 0.6638
dCMP [1]: -0.6324
dTDP [1]: 0.5044
dTMP [1]: 1.028
dTTP [1]: -1.24
dihydroorotate [1]: 2.22
orotate [1]: -0.01519
DLH [1]: -3.038
DLS/SDL/SID [1]: -1.162
PD [1]: -0.2116
PEE [1]: -5.814
PVNF [1]: -1.547
3-phosphoglycerate [1]: 0.5584
ADP-D-glucose [1]: 0.41
ATP [1]: -0.8212
CDP [1]: -0.1382
D-sedoheptulose-1/7-phosphate [1]: 0.3347
FAD [1]: 0.9327
GMP [1]: 0.5554
NAD+ [1]: 0.6377
NADP+ [1]: 1.018
Octoluse Bisphosphate [1]: 0.3963
Pyroglutamic acid [1]: -0.8623
UDP-D-glucose [1]: 0.149
UDP-D-glucuronate [1]: 0.1087
UDP-N-acetyl-glucosamine [1]: 0.4035
UDP [1]: 0.7043
UMP [1]: -0.2063
UTP [1]: -0.5445
a-ketoglutarate [1]: -0.3007
citrate/isocitrate [1]: -0.768
cytidine [1]: 0.3191
dATP [1]: -1.248
dGMP/AMP [1]: 0.4665
fumarate [1]: -0.3966
glucose-1/6-phosphate [1]: 3.518
glycerate [1]: 0.8355
guanine [1]: -0.1055
guanosine [1]: -0.4181
hypoxanthine [1]: 0.2457
indole [1]: -0.2391
inosine [1]: 0.4136
2_3-Diphosphoglyceric acid [1]: 0.3981
4-phosphopantothenate [1]: 0.7744
6-phospho-D-gluconate [1]: -0.4519
FMN [1]: 0.7846
IMP [1]: 0.7773
Pyrophosphate [1]: -0.6549
Sedoheptoluse bisphosphate [1]: 0.6681
cyclic-AMP [1]: 0.8549
glutathione disulfide [1]: 0.7162
lactate [1]: 1.5312
myo-inositol [1]: 3.154
nicotinate [1]: -0.4211
ornithine [1]: -0.2093
phosphoenolpyruvate [1]: 0.02444
pyruvate [1]: 0.2652
ribose-phosphate [1]: 0.4889
sarcosine/alanine [1]: -0.4284
sn-glycerol-3-phosphate [1]: 0.01718
succinate/methylmalonic acid [1]: -0.401
uridine [1]: 0.3457
xanthosine [1]: -1.776

Structure (SMILES): O=C(CSc1nccn2nc(-c3ccccc3)cc12)Nc1cc(C(F)(F)F)ccc1Cl [MMV396678]
Acetyllysine [1]: -0.4877
N-acetyl-L-ornithine [1]: -0.4938
N-carbamoyl-L-aspartate [1]: 3.602
NADPH [1]: -0.3509
dAMP [1]: -2.425
dCMP [1]: -0.1067
dTDP [1]: -0.8621
dTMP [1]: -0.7966
dTTP [1]: -1.266
dihydroorotate [1]: 4.597
orotate [1]: 0.259
DLH [1]: -0.3174
DLS/SDL/SID [1]: -0.3424
PD [1]: -0.07917
PEE [1]: -0.441
PVNF [1]: -2.237
3-phosphoglycerate [1]: -0.1451
ADP-D-glucose [1]: -0.07756
ATP [1]: 0.1007
CDP [1]: -0.7494
D-sedoheptulose-1/7-phosphate [1]: -0.4438
FAD [1]: -0.03171
GMP [1]: 0.3554
NAD+ [1]: 0.01671
NADP+ [1]: -0.09002
Octoluse Bisphosphate [1]: -0.2508
Pyroglutamic acid [1]: 0.3744
UDP-D-glucose [1]: -0.1169
UDP-D-glucuronate [1]: -0.3093
UDP-N-acetyl-glucosamine [1]: -0.3205
UDP [1]: -0.9356
UMP [1]: -0.7589
UTP [1]: -1.3566
a-ketoglutarate [1]: 0.2592
citrate/isocitrate [1]: 0.4562
cytidine [1]: 0.4629
dATP [1]: 0.2611
dGMP/AMP [1]: -0.1351
fumarate [1]: 0.07736
glucose-1/6-phosphate [1]: 0.1714
glycerate [1]: 0.291
guanine [1]: 0.4817
guanosine [1]: 0.7569
hypoxanthine [1]: 0.5204
indole [1]: 0.3835
inosine [1]: 0.4193
2_3-Diphosphoglyceric acid [1]: -0.1645
4-phosphopantothenate [1]: -0.3586
6-phospho-D-gluconate [1]: -0.1209
FMN [1]: -0.2869
IMP [1]: 0.1606
Pyrophosphate [1]: -0.1573
Sedoheptoluse bisphosphate [1]: -0.2556
cyclic-AMP [1]: -0.1203
glutathione disulfide [1]: -0.08653
lactate [1]: 0.1751
myo-inositol [1]: -0.2117
nicotinate [1]: 0.4349
ornithine [1]: 0.266
phosphoenolpyruvate [1]: 0.01446
pyruvate [1]: 0.3754
ribose-phosphate [1]: -0.04013
sarcosine/alanine [1]: -0.09301
sn-glycerol-3-phosphate [1]: -0.3771
succinate/methylmalonic acid [1]: 0.03069
uridine [1]: 0.1532
xanthosine [1]: 0.489
